In ChEMBL document CHEMBL1201862, “PubChem BioAssay data set” (2004):
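48-hour exposure; five concentrations; linearly interpolated endpoints. Here, GI50 denotes the concentration required for 50% inhibition of growth.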 Active and inactive are the calls of the source. Rule as the data show it: active = GI50 up to about 1.1 µM and inactive = higher. *1 amine or outer side, *2 acyl side, *3 side chain or, on linkers, in order; H or OH if unused. Where a SMILES comes first, the peptide text is derived from it. [ ]: non-standard residue; d: D form. The star is where a group is joined. X31 = CC(=O)N(C)SCC(N[*:1])C(=O)[*:2]; Fmoc = O=C(OCC1c2ccccc2-c2ccccc21)*; For = O=C*

Columns and labels:
Assay in all cases: NCI anticancer screen, dose series, 48 h
[1] = test system: CAKI-1
[2] = test system: SF-539
[3] = test system: SF-268
[4] = test system: MDA-MB-435
[5] = test system: M14
[6] = test system: UACC-257
[7] = test system: HT-29
[8] = test system: SK-OV-3
[9] = test system: HCC 2998
[10] = test system: MCF7
[11] = test system: OVCAR-4
[12] = test system: NCI-H23
[13] = test system: TK-10
[14] = test system: SF-295
[15] = test system: 786-0
[16] = test system: SK-MEL-5
[17] = test system: HOP-62
[18] = test system: COLO 205
[19] = test system: HCT-15
[20] = test system: SNB-19

| SMILES | GI50 [1] | GI50 [2] | GI50 [3] | GI50 [4] | GI50 [5] | GI50 [6] | GI50 [7] | GI50 [8] | GI50 [9] | GI50 [10] | GI50 [11] | GI50 [12] | GI50 [13] | GI50 [14] | GI50 [15] | GI50 [16] | GI50 [17] | GI50 [18] | GI50 [19] [µM] | GI50 [20] |
| --- | --- | --- | --- | --- | --- | --- | --- | --- | --- | --- | --- | --- | --- | --- | --- | --- | --- | --- | --- | --- |
| O=C1C2=Cc3ccccc3OC2(O)Oc2cc3ccccc3cc21 (configuration not stated) | > 100 µM (inactive) | 20 µM (inactive) | 36.1 µM (inactive) | > 100 µM (inactive) | > 100 µM (inactive) | > 100 µM (inactive) | > 100 µM (inactive) | 56.5 µM (inactive) | 28.1 µM (inactive) | > 100 µM (inactive) | 49.7 µM (inactive) | > 100 µM (inactive) | > 100 µM (inactive) | 94.8 µM (inactive) | > 100 µM (inactive) | > 100 µM (inactive) | > 100 µM (inactive) | > 100 µM (inactive) | > 100 | – |
| N#Cc1nsnc1-c1nc(-c2nsnc2C#N)nc(-c2nsnc2C#N)n1 | > 100 µM (inactive) | > 100 µM (inactive) | > 100 µM (inactive) | > 100 µM (inactive) | – | > 100 µM (inactive) | > 100 µM (inactive) | – | > 100 µM (inactive) | > 100 µM (inactive) | > 100 µM (inactive) | > 100 µM (inactive) | 71.4 µM (inactive) | > 100 µM (inactive) | 61.9 µM (inactive) | > 100 µM (inactive) | > 100 µM (inactive) | > 100 µM (inactive) | > 100 | > 100 µM (inactive) |
| CCC(C#N)NCc1ccc(CNC(C#N)CC)cc1 (configuration not stated) | > 100 µM (inactive) | > 100 µM (inactive) | > 100 µM (inactive) | > 100 µM (inactive) | > 100 µM (inactive) | > 100 µM (inactive) | > 100 µM (inactive) | > 100 µM (inactive) | > 100 µM (inactive) | > 100 µM (inactive) | > 100 µM (inactive) | > 100 µM (inactive) | > 100 µM (inactive) | > 100 µM (inactive) | > 100 µM (inactive) | > 100 µM (inactive) | – | > 100 µM (inactive) | > 100 | > 100 µM (inactive) |
| Cc1ccc(C(=O)N/N=C(\N=N\c2ccccc2Cl)c2ccc(N(C)C)cc2)cc1 | 30.5 µM (inactive) | 21.4 µM (inactive) | > 100 µM (inactive) | 10.5 µM (inactive) | 42.7 µM (inactive) | 27.5 µM (inactive) | 33.1 µM (inactive) | 20.4 µM (inactive) | 25.1 µM (inactive) | 28.2 µM (inactive) | 7.33 µM (inactive) | 50.7 µM (inactive) | > 100 µM (inactive) | 28.8 µM (inactive) | 48.3 µM (inactive) | 21.3 µM (inactive) | – | 38.6 µM (inactive) | 30.6 | 28.1 µM (inactive) |
| CCOC(=O)N1CCNCCN(C(=O)OCC)CCNCC1 | > 100 µM (inactive) | > 100 µM (inactive) | > 100 µM (inactive) | > 100 µM (inactive) | > 100 µM (inactive) | > 100 µM (inactive) | > 100 µM (inactive) | – | > 100 µM (inactive) | > 100 µM (inactive) | > 100 µM (inactive) | > 100 µM (inactive) | > 100 µM (inactive) | > 100 µM (inactive) | > 100 µM (inactive) | > 100 µM (inactive) | > 100 µM (inactive) | > 100 µM (inactive) | > 100 | > 100 µM (inactive) |
| c1cc2cc(c1)CN1CCNCCN(CCNCC1)Cc1cccc(c1)CN1CCNCCN(CCNCC1)C2 | – | > 100 µM (inactive) | > 100 µM (inactive) | > 100 µM (inactive) | > 100 µM (inactive) | > 100 µM (inactive) | > 100 µM (inactive) | > 100 µM (inactive) | > 100 µM (inactive) | > 100 µM (inactive) | > 100 µM (inactive) | > 100 µM (inactive) | > 100 µM (inactive) | > 100 µM (inactive) | > 100 µM (inactive) | > 100 µM (inactive) | > 100 µM (inactive) | > 100 µM (inactive) | > 100 | > 100 µM (inactive) |
| COc1ccccc1NC1=NCC(C)S1 (configuration not stated) | > 100 µM (inactive) | > 100 µM (inactive) | > 100 µM (inactive) | > 100 µM (inactive) | > 100 µM (inactive) | > 100 µM (inactive) | > 100 µM (inactive) | > 100 µM (inactive) | > 100 µM (inactive) | > 100 µM (inactive) | – | > 100 µM (inactive) | > 100 µM (inactive) | > 100 µM (inactive) | > 100 µM (inactive) | > 100 µM (inactive) | > 100 µM (inactive) | > 100 µM (inactive) | > 100 | > 100 µM (inactive) |
| COC(=O)C1(Cc2ccc3c(c2)CCC3)Cc2ccc3c(c2C1O)CCC3 (configuration not stated) | 14.2 µM (inactive) | 21.2 µM (inactive) | 21 µM (inactive) | 13 µM (inactive) | – | 10.7 µM (inactive) | 15.2 µM (inactive) | 18.5 µM (inactive) | 17.1 µM (inactive) | 12.9 µM (inactive) | 5.79 µM (inactive) | > 10 µM (inactive) | 17.3 µM (inactive) | 17.5 µM (inactive) | 14.7 µM (inactive) | 10.2 µM (inactive) | 14.7 µM (inactive) | 12.9 µM (inactive) | > 10 | – |
| CC(=O)OCC1OC(Oc2cc(C)c(O)cc2C/C=C(\C)CC/C=C(\C)C[C@@H](C=C(C)C)OC(C)=O)C(O)C(OC(C)=O)C1OC(C)=O (some centres not stated) | > 50 µM (inactive) | – | 28.2 µM (inactive) | 16.5 µM (inactive) | 23.3 µM (inactive) | 10 µM (inactive) | 17.7 µM (inactive) | > 50 µM (inactive) | 16.9 µM (inactive) | 16 µM (inactive) | 23.6 µM (inactive) | 23.3 µM (inactive) | 22.9 µM (inactive) | 22.2 µM (inactive) | 39.1 µM (inactive) | 9.14 µM (inactive) | 28.4 µM (inactive) | 9.38 µM (inactive) | 16.3 | > 50 µM (inactive) |
| C=C1C(=O)OC2C1CC(O)/C(C)=C\CCC1(C)OC21 (configuration not stated) | – | 34.2 µM (inactive) | 25.1 µM (inactive) | 27.2 µM (inactive) | 23.1 µM (inactive) | 34 µM (inactive) | 27.5 µM (inactive) | 49.9 µM (inactive) | 35.1 µM (inactive) | 28.2 µM (inactive) | 25.6 µM (inactive) | 31.3 µM (inactive) | 39.3 µM (inactive) | 30.3 µM (inactive) | 31 µM (inactive) | 21 µM (inactive) | 20 µM (inactive) | 29.8 µM (inactive) | 16.3 | 48.1 µM (inactive) |
| Cn1c(=O)n(-c2c3ccccc3c(Cl)c3ccccc23)n(C(C)(C)C)c1=O | > 100 µM (inactive) | 43.6 µM (inactive) | 59.8 µM (inactive) | > 100 µM (inactive) | > 100 µM (inactive) | > 100 µM (inactive) | > 100 µM (inactive) | > 100 µM (inactive) | > 100 µM (inactive) | > 100 µM (inactive) | – | > 100 µM (inactive) | > 100 µM (inactive) | > 100 µM (inactive) | 48.8 µM (inactive) | > 100 µM (inactive) | 38.4 µM (inactive) | > 100 µM (inactive) | > 100 | > 100 µM (inactive) |
| C=C[C@]1(O)CCC[C@]2(C)C(=O)CCC12C (some centres not stated) | – | > 100 µM (inactive) | > 100 µM (inactive) | > 100 µM (inactive) | > 100 µM (inactive) | > 100 µM (inactive) | > 100 µM (inactive) | > 100 µM (inactive) | > 100 µM (inactive) | > 100 µM (inactive) | > 100 µM (inactive) | > 100 µM (inactive) | – | > 100 µM (inactive) | > 100 µM (inactive) | > 100 µM (inactive) | > 100 µM (inactive) | > 100 µM (inactive) | > 100 | > 100 µM (inactive) |
| O=c1cc(-c2ccccc2F)[nH]c2cc3c(cc12)OCO3 | – | 0.0702 µM (active) | 0.504 µM (active) | < 0.01 µM (active) | 0.0528 µM (active) | 1.2 µM (inactive) | 0.0942 µM (active) | 0.201 µM (active) | 0.107 µM (active) | 0.0953 µM (active) | > 24.6 µM (inactive) | 0.35 µM (active) | 2.88 µM (inactive) | 0.0993 µM (active) | 0.182 µM (active) | 0.0211 µM (active) | 0.19 µM (active) | 0.0512 µM (active) | 0.0417 | 0.202 µM (active) |
| CC(=O)N(C)SCC(NC(=O)C(Cc1ccccc1)NC(=O)OCC1c2ccccc2-c2ccccc21)C(=O)NC(Cc1ccccc1)C(=O)NC(Cc1cn(C=O)c2ccccc12)C(=O)NC(CCCCNC(=O)OCC1c2ccccc2-c2ccccc21)C(=O)NC(C(=O)NC(CSN(C)C(C)=O)C(=O)NC(C(N)=O)C(C)O)C(C)O (configuration not stated) (Fmoc-F[X31]FW(For)K(Fmoc)T[X31]T-NH2; configuration not given here) | – | > 100 µM (inactive) | > 100 µM (inactive) | 94.4 µM (inactive) | 31 µM (inactive) | 90.2 µM (inactive) | > 100 µM (inactive) | 37.2 µM (inactive) | > 100 µM (inactive) | 47.4 µM (inactive) | > 100 µM (inactive) | 20.8 µM (inactive) | 24.2 µM (inactive) | 89.5 µM (inactive) | > 100 µM (inactive) | 55.1 µM (inactive) | > 100 µM (inactive) | 36.6 µM (inactive) | 95.1 | 75.5 µM (inactive) |
| O=S(=O)(O)CCS [MESNA] | > 100 µM (inactive) | > 100 µM (inactive) | > 100 µM (inactive) | > 100 µM (inactive) | > 100 µM (inactive) | > 100 µM (inactive) | > 100 µM (inactive) | > 100 µM (inactive) | > 100 µM (inactive) | > 100 µM (inactive) | > 100 µM (inactive) | > 100 µM (inactive) | – | > 100 µM (inactive) | > 100 µM (inactive) | > 100 µM (inactive) | > 100 µM (inactive) | > 100 µM (inactive) | > 100 | > 100 µM (inactive) |
